# Assay results from ChEMBL document CHEMBL1201862, “PubChem BioAssay data set” (2004).
# Active and inactive are the calls of the source.
# How the values were obtained:
# Protein RecA = target: T1, Protein RecA (Mycobacterium tuberculosis, UniProt P9WHJ3); test: Fluorescence Cell-Free Homogeneous Dose Retest to Identify Inhibitors of RecA-Intein Splicing Activity. [Related pubchem assays (depositor defined):AID2097, AID2223, AID489010, AID492950]; assay type: functional
# T1 sequence (P9WHJ3 whole entry): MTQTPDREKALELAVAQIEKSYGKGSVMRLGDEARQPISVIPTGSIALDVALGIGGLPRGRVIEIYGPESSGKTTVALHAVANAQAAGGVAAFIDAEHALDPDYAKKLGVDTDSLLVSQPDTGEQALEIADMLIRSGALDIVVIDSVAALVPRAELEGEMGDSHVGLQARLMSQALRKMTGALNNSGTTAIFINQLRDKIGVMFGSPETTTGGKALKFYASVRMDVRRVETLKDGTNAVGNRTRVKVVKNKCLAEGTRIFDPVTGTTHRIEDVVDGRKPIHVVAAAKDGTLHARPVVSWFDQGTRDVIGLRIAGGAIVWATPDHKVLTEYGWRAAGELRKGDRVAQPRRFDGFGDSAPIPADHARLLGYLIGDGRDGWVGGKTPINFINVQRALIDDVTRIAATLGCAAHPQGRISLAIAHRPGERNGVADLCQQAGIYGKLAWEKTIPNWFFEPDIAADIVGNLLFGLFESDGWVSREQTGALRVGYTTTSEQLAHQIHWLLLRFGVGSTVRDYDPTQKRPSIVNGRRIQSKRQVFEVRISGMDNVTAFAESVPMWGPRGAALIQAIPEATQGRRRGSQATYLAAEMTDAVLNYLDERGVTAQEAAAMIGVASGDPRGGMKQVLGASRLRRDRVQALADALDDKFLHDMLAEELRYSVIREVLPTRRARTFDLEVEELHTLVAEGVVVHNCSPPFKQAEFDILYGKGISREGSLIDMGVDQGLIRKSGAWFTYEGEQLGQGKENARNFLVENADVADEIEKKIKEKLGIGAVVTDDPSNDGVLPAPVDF
# Vero [1] = test: cells; assay type: functional, cell-based; conditions: Chlorocebus sabaeus
# Cytochrome P450 1A2 = target: T2, Cytochrome P450 1A2 (Homo sapiens, UniProt P05177);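 further: PubChem cytochrome P450 panel assay, CYP1A2 panel member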
# T2 sequence (P05177 whole entry): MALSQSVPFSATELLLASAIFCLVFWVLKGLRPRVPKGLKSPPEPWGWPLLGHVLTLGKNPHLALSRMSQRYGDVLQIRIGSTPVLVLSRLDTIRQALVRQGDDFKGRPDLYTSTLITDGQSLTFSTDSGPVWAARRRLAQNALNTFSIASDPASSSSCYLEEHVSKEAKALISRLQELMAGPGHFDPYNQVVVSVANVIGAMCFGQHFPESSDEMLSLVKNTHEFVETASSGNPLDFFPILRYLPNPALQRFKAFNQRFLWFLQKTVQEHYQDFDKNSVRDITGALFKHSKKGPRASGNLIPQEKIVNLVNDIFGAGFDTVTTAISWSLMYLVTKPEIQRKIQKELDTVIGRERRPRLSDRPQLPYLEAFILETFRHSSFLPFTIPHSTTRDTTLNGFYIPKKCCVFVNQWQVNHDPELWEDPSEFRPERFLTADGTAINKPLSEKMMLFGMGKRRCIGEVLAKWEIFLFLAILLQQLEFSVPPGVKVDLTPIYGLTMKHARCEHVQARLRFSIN
# [2] = target: T3, Replicative DNA helicase DnaB (Mycobacterium tuberculosis, UniProt P9WMR3); test: DnaB intein splicing inhibitors, dose response, biochemical, cell-free fluorescence (AID 449749); assay type: functional
# T3 sequence (P9WMR3 whole entry): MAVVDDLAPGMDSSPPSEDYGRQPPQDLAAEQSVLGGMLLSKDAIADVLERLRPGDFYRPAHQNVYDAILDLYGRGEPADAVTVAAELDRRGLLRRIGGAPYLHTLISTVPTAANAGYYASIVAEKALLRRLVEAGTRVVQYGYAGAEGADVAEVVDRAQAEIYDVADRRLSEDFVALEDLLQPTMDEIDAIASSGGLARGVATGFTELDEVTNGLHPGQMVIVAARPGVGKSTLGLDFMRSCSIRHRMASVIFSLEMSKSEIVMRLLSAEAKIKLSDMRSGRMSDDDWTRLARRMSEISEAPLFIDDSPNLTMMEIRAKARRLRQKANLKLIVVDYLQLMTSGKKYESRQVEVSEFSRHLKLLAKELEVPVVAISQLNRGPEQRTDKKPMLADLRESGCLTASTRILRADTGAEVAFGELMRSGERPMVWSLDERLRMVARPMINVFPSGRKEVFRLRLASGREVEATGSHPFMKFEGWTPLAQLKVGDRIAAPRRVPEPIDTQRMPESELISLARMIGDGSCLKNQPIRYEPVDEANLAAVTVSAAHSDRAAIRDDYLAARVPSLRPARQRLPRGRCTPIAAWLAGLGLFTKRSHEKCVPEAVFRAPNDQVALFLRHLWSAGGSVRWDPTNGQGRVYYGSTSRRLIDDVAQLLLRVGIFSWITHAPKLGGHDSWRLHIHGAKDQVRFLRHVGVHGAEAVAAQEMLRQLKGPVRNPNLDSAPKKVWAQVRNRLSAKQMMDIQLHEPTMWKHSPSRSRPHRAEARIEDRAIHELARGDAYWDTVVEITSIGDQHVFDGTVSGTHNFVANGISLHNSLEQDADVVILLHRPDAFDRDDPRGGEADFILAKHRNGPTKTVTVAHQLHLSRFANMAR
# [3] = fluconazole-exposed Candida albicans growth modulators – fluorescence, retest, confirmation (AID 2467); assay type: functional, cell-based
# Cytochrome P450 2D6 = Cytochrome P450 2D6 (Homo sapiens, UniProt P10635);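 further: CYP2D6 member of a cytochrome P450 panel assay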
# Cytochrome P450 2D6, sequence (P10635 whole entry): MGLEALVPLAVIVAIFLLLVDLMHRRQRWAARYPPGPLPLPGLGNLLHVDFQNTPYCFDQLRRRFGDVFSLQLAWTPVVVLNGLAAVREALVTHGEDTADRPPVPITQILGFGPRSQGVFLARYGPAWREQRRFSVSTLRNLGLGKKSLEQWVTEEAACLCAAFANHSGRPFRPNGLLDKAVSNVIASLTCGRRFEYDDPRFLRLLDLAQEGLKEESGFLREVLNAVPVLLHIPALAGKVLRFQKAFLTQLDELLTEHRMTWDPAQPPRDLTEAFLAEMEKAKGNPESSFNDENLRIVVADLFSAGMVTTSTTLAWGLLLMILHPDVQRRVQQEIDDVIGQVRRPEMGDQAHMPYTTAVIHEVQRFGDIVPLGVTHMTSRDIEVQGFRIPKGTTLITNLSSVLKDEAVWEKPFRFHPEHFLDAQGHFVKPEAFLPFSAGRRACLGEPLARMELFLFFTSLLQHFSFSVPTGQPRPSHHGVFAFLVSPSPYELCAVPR
# [4] = NIH-3T3 fibroblast cytotoxicity, dose response, cytotoxicity control, cell-based, fluorescence, Alamar Blue, secondary assay (AID 2327); assay type: functional;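 further: NIH-3T3 mouse fibroblasts cultured with fluconazole at 8 µg/mL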
# [5] = target: T4, Short transient receptor potential channel 4 (Mus musculus, UniProt Q9QUQ5); test: calcium entry via TRPC4 opening agents – cell-based, HEK293 TRPC4/mu-opioid, Fluo-4 calcium, dose response (AID 434937); assay type: functional
# T4 sequence (Q9QUQ5 whole entry): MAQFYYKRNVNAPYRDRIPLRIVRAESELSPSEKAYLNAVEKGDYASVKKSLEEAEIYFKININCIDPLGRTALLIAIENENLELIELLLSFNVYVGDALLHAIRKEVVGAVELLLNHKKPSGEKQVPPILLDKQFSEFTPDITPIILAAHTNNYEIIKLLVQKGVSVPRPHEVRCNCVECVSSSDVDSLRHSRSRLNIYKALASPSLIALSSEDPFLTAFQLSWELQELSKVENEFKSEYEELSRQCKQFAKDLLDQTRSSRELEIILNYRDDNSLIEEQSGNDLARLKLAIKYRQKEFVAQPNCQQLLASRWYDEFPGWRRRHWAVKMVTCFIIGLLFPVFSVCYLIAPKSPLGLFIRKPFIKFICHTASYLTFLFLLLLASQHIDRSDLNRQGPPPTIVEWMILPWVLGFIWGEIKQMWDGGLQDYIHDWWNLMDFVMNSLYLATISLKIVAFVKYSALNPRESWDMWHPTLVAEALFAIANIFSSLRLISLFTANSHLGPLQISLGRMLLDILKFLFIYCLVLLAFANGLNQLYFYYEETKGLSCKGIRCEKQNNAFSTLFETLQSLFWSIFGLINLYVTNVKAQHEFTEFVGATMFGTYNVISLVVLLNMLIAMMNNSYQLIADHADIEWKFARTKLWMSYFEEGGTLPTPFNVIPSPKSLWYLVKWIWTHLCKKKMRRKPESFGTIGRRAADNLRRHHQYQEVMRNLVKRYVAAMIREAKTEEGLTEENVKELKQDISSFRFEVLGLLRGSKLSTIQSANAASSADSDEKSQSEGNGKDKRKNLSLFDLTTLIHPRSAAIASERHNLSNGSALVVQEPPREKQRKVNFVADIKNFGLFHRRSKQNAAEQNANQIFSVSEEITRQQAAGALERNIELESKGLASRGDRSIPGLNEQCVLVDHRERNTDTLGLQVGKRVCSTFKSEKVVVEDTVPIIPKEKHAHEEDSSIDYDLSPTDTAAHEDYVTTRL
# Vero [6] = test: cells; assay type: functional; conditions: Chlorocebus sabaeus
# Cytochrome P450 2C19 = Cytochrome P450 2C19 (Homo sapiens, UniProt P33261); test: Cytochrome panel assay with activity outcomes. Panel member name: p450-cyp2c19 Compounds with AC50 equal or less than 10 uM are considered active; assay type: functional; conditions: read-out: AC50
# Cytochrome P450 2C19, sequence (P33261 whole entry): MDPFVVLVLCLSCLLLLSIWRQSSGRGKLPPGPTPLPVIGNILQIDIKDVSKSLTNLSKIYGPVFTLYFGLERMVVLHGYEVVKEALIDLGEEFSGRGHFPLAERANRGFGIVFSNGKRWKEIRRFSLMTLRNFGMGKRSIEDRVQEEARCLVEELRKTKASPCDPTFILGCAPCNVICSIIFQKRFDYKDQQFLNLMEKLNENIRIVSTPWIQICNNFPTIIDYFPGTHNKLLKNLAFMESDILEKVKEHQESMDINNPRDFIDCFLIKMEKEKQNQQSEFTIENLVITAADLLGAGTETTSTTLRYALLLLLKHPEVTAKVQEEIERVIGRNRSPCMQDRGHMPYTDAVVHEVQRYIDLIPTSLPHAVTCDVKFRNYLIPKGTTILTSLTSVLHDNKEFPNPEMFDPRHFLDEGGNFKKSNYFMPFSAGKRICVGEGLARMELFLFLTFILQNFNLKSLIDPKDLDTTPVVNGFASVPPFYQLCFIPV
# HEK293 [7] = test: cells; assay type: functional, cell-based; conditions: Homo sapiens
# Beta-galactosidase = Beta-galactosidase (Escherichia coli, UniProt Q8VNN2); test: PubChem AID 485352; assay type: functional
# Beta-galactosidase, sequence (Q8VNN2 whole entry): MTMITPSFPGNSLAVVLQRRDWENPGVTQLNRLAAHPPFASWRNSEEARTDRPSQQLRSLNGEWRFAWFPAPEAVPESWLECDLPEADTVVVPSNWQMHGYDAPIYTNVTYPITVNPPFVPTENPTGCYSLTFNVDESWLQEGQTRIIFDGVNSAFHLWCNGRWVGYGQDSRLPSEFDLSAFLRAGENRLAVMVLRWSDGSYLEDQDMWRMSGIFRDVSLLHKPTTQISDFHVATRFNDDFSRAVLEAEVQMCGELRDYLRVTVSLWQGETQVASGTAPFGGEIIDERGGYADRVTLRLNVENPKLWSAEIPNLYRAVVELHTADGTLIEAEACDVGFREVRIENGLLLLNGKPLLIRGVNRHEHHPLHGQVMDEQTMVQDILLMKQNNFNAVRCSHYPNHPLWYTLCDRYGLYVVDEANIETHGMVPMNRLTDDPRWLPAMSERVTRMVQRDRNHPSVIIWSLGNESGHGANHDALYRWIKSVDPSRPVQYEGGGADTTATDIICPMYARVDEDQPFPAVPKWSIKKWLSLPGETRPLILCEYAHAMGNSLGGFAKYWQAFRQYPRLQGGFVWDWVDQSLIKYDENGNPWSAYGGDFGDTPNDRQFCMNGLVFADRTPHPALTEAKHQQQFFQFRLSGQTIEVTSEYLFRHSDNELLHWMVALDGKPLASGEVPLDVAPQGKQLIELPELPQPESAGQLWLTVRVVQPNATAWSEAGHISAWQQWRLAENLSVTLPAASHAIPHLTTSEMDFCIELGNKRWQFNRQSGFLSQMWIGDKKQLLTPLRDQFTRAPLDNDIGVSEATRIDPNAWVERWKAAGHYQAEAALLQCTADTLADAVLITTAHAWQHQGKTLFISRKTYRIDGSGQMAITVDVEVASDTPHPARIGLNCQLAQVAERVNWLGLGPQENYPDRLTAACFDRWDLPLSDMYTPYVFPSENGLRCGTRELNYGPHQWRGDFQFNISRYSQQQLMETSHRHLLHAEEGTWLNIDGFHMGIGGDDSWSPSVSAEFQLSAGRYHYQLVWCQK
# INS1 = test: INS-1E survival protection against cytokine death – cell-based, luminescence, retest, dose response (AID 449756); assay type: functional; conditions: Rattus norvegicus;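 further: cell death triggered by IL-1 beta plus TNF-alpha plus IFN-gamma mixture; protective hits raise ATP signal compared with cytokine alone wells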
# Vero [8] = test: mammalian cell viability reduction – secondary assay, cytotoxicity control for West Nile virus antiviral project, dose response (AID 1650); assay type: functional; conditions: Chlorocebus sabaeus
# HEK293 [9] = test: cells; assay type: functional, cell-based; conditions: Homo sapiens; remark: listed apart in the source
# [10] = target: T5, Type-1 angiotensin II receptor (Homo sapiens, UniProt P30556); test: antagonism of angiotensin II type 1 receptor – cell-based, uHTS hits, selectivity assay for APJ receptor antagonist project, dose response (AID 463214); assay type: functional;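 further: antagonist potency against angiotensin II stimulated AT1 response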
# T5 sequence (P30556 whole entry): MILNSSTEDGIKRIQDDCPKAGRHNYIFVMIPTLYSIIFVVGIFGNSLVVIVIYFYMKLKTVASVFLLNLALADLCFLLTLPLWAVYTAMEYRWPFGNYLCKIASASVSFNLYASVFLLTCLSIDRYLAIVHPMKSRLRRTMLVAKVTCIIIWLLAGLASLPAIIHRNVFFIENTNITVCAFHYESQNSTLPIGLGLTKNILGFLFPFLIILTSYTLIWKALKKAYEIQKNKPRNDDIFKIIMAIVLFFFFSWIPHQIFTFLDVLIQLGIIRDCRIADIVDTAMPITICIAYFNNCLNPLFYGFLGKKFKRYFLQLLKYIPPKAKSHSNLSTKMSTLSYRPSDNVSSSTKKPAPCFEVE
# HEK293 [11] = test: inhibition of NOD1-driven NF-kB reporter – cell-based, luminescence, uHTS, primary screen (AID 1578); assay type: functional; conditions: Homo sapiens
# HEK293 [12] = test: cells; assay type: functional, cell-based; conditions: Homo sapiens; remark: listed apart in the source
# [13] = HEK-293T viability loss after treatment – luminescence, T-cell screen hits, cytotoxicity control for TCR NF-kB inhibitor project, dose response (AID 489026); assay type: functional, cell-based;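 further: cells exposed to compound about 14 hours before the viability readout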
# HEK293 [14] = test: NOD2 signaling inhibitors in MDP-stimulated cells, cell-based, uHTS, luminescence (AID 2001); assay type: functional; conditions: Homo sapiens
# [15] = target: Nucleotide-binding oligomerization domain-containing protein 2 (Homo sapiens, UniProt Q9HC29); test: inhibition of NOD2-driven NF-kB reporter – cell-based, luminescence, uHTS, HEK293 (AID 1566); assay type: functional
# Nucleotide-binding oligomerization domain-containing protein 2, sequence (Q9HC29 whole entry, the tested form may be a part): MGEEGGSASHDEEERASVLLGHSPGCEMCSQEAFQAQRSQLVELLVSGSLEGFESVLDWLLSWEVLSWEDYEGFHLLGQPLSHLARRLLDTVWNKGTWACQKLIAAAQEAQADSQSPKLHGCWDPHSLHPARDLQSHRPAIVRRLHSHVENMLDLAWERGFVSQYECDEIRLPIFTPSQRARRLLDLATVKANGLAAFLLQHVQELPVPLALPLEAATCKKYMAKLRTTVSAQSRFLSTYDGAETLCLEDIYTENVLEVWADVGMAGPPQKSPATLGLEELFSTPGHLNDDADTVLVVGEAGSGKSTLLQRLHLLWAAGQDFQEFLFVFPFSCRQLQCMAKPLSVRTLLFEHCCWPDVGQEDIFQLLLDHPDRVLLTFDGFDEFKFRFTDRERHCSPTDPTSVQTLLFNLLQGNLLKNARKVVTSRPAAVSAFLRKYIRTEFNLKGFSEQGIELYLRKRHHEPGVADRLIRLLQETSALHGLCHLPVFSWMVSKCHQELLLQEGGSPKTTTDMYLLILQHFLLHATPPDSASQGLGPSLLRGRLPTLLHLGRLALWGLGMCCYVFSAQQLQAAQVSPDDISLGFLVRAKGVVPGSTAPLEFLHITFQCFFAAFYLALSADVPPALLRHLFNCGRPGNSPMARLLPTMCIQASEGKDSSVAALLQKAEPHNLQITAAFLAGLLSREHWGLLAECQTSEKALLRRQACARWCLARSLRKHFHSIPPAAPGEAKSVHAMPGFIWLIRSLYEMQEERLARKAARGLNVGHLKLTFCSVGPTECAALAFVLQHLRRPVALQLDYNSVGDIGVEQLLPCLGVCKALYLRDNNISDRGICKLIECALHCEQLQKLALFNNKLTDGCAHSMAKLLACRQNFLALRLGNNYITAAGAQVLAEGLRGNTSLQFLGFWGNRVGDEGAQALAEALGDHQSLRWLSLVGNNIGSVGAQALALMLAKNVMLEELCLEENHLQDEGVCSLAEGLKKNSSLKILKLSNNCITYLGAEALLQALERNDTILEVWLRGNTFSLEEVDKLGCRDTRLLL
smiles,measurement,setting,value
COc1ccc(C(=O)NC(=S)NNC(=O)CCc2ccccc2)cc1,EC50,Protein RecA,> 380 µM (inactive)
same,IC50,Vero [1],24.6 µM (active)
same,AC50,Cytochrome P450 1A2,15.8 µM (inconclusive)
same,AC50,[2],> 380 µM (inactive)
same,EC50,[3],2.16 µM (active)
same,AC50,Cytochrome P450 2D6,15.8 µM (inconclusive)
same,EC50,[4],> 150 µM (inconclusive)
same,EC50,[5],5.96 µM (active)
same,CC50,Vero [6],24.2 µM (active)
same,AC50,Cytochrome P450 2C19,14.1 µM (inconclusive)
Cc1ccc(C)c(N=Nc2ccc(O)c3ncccc23)c1,IC50,HEK293 [7],> 20 µM (inactive)
same,EC50,Beta-galactosidase,> 40 µM (inactive)
same,AC50,INS1,1.29 µM (active)
same,CC50,Vero [8],6.64 µM (active)
same,IC50,HEK293 [9],1.89 µM (active)
same,IC50,[10],9.84 µM (active)
same,EC50,HEK293 [11],4.12 µM (active)
same,EC50,[3],1.57 µM (active)
same,IC50,HEK293 [12],> 20 µM (inactive)
same,IC50,[13],> 80 µM (inactive)
same,IC50,HEK293 [14],3 µM (active)
same,EC50,[15],> 20 µM (inactive)
same,EC50,[4],17 µM (active)
